Read-outs that look alike come from different tables or passages of the source.
How the values were obtained:
Type in all cases: cell-based, human
HTT mRNA = test: RT-qPCR splicing assay, HTT mRNA canonical (CJ) and alternative (AJ) junction; settings: Homo sapiens; for AC50: HTT alternative junction mRNA, read-out: HTT AJ (increase in AJ mRNA, AC50)
Method in brief: (§1)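 A673 or K562 cells treated 24 h at 37 °C with an 11-point 3-fold dilution series (top 10 uM, DMSO ≤0.25%). Lysates went directly to one-step RT-qPCR quantifying canonical (CJ) and alternative-exon (AJ) junctions, normalized to GAPDH, GUSB or PPIA. Values from ΔΔCt versus DMSO, RQ = 2^(−ΔΔCt), expressed as percentage response.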

MYB mRNA = test: RT-qPCR splicing assay, MYB mRNA canonical (CJ) and alternative (AJ) junction; settings: Homo sapiens; for AC50: MYB alternative junction mRNA, read-out: MYB AJ (increase in AJ mRNA, AC50)
Method in brief: as §1

MYB = test: HiBiT protein abundance assay, MYB (K562 HiBiT knock-in); settings: HiBiT knock-in K562 cells, 24 hours, top dose 10 μM
Method in brief: (§2)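 Tagged-protein levels were measured as HiBiT/LgBiT luminescence in lysed K562 knock-in cells exposed to serially diluted compound (up to 10 μM final) for 24 hours. A four-parameter logistic regression of control-normalized signal yielded the IC50.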

HTT = test: HiBiT protein abundance assay, HTT (K562 HiBiT knock-in); settings: HiBiT knock-in K562 cells, 24 hours, top dose 10 μM
Method in brief: as §2

Target C = test: HiBiT protein abundance assay, Target C (K562 HiBiT knock-in); settings: HiBiT knock-in K562 cells, 24 hours, top dose 10 μM
Method in brief: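 K562 HiBiT knock-in cells (10000/well) were treated 24 h at 37° C with a 10-point 3-fold dilution series (top 10 μM final, ≤0.25% DMSO). HiBiT luminescence was read after lytic LgBiT detection. Percent response used unmodified K562 and DMSO-treated knock-in controls, and IC50 came from a four-parameter fit at 50% of untreated.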

[1] = HTT canonical junction mRNA, RT-qPCR, read-out: HTT CJ (decrease in CJ mRNA levels, IC50)
[2] = canonical junction qPCR panel, Table 4, read-out: HTT IC50 (decrease in CJ mRNA levels)
[3] = MYB canonical junction mRNA, RT-qPCR, read-out: MYB CJ (decrease in CJ mRNA levels, IC50)
[4] = canonical junction qPCR panel, Table 4, read-out: MYB IC50 (decrease in CJ mRNA levels)

Compound	AC50 (HTT mRNA; RT-qPCR) [µM]	IC50 (HTT mRNA; [1]) [µM]	IC50 (HTT mRNA; [2]) [µM]	AC50 (MYB mRNA; RT-qPCR) [µM]	IC50 (MYB mRNA; [3]) [µM]	IC50 (MYB mRNA; [4]) [µM]	IC50 (MYB) [µM]	IC50 (HTT) [µM]	IC50 (Target C) [µM]
Cc1nc2cc(O)c(-c3ccc4nc(N5CCC(NC(C)C)C5)ccc4n3)cc2o1 (stereo not drawn) [Compound 231]	< 0.1	< 0.1	< 0.1	< 0.1	< 0.1	< 0.1	< 0.1	< 0.1	< 0.1
Cc1nc2c(C)c(O)c(-c3ccc4nc(N5CCC(NC6CCC6)C5)ccc4n3)cc2o1 (stereo not drawn) [Compound 235]	< 0.1	< 0.1	< 0.1	< 0.1	< 0.1	< 0.1	< 0.1	< 0.1	< 0.1
Cc1nc2c(C)c(O)c(-c3ccc4nc(N5CC[C@@H](NC6CCC6)C5)ccc4n3)cc2o1 [Compound 236]	< 0.1	< 0.1	< 0.1	< 0.1	< 0.1	< 0.1	< 0.1	< 0.1	< 0.1
Cc1nc2c(C)c(O)c(-c3ccc4nc(N5CC[C@H](NC6CCC6)C5)ccc4n3)cc2o1 [Compound 237]	< 0.1	< 0.1	< 0.1	< 0.1	< 0.1	< 0.1	< 0.1	< 0.1	< 0.1
Cc1cc(-c2ccc3nc(N4CCC(NC(C)(C)C)C4)ccc3n2)nc2cn(C)nc12 (stereo not drawn) [Compound 248]	0.1 to 1	1 to 10	1 to 10	1 to 10	1 to 10	1 to 10	1 to 10	0.1 to 1	0.1 to 1
Cc1c(O)c(-c2ccc3nc(N4CC[C@@H](NC(C)(C)C)C4)ccc3n2)cc2cn(C)nc12 [Compound 249]	< 0.1	< 0.1	< 0.1	< 0.1	< 0.1	< 0.1	< 0.1	< 0.1	< 0.1
Cc1c(O)c(-c2ccc3nc(N4CC[C@H](NC(C)(C)C)C4)ccc3n2)cc2cn(C)nc12 [Compound 250]	< 0.1	< 0.1	< 0.1	< 0.1	< 0.1	< 0.1	< 0.1	< 0.1	< 0.1
COc1c(-c2ccc3nc(N4CCC(NC(C)(C)C)C4)ccc3n2)cc2c[nH]nc2c1C (stereo not drawn) [Compound 251]	> 10	> 10	> 10	> 10	> 10	> 10	> 10	> 10	0.1 to 1
Cc1cn2nc(-c3ccc4nc(N5CCC(NC6CC6)C5)ccc4n3)c(O)c2c(C)n1 (stereo not drawn) [Compound 252]	0.1 to 1	< 0.1	< 0.1	0.1 to 1	0.1 to 1	0.1 to 1	0.1 to 1	0.1 to 1	0.1 to 1
Cc1c(O)c(-c2ccc3nc(N4CCC(NCC5CC5)C4)ccc3n2)cc2cn(C)nc12 (stereo not drawn) [Compound 284, 5-(6-{3-[(cyclopropylmethyl)amino]pyrrolidin-1-yl}-1,5-naphthyridin-2-yl)-2,7-dimethylindazol-6-ol]	< 0.1	< 0.1	< 0.1	0.1 to 1	< 0.1	< 0.1	< 0.1	< 0.1	< 0.1
Cc1c(O)c(-c2ccc3nc(N4CCC(NC5CCC5)C4)ccc3n2)cc2cn(C)nc12 (stereo not drawn) [Compound 288, 5-{6-[3-(cyclobutylamino)pyrrolidin-1-yl]-1,5-naphthyridin-2-yl}-2,7-dimethylindazol-6-ol]	< 0.1	< 0.1	< 0.1	< 0.1	< 0.1	< 0.1	< 0.1	< 0.1	< 0.1
Cc1nc2c(F)c(O)c(-c3ccc4nc(N5CCC(NC6CCC6)C5)ccc4n3)cc2o1 (stereo not drawn) [Compound 293, 6-{6-[3-(cyclobutylamino)pyrrolidin-1-yl]-1,5-naphthyridin-2-yl}-4-fluoro-2-methyl-1,3-benzoxazol-5-ol]	< 0.1	< 0.1	< 0.1	< 0.1	< 0.1	< 0.1	< 0.1	< 0.1	< 0.1
Cn1cc2cc(-c3ccc4nc(N5CCC(NC67CC(C6)C7)C5)ccc4n3)c(O)cc2n1 (stereo not drawn) [Compound 297, 5-[6-(3-{bicyclo[1.1.1]pentan-1-ylamino}pyrrolidin-1-yl)-1,5-naphthyridin-2-yl]-2-methylindazol-6-ol]	1 to 10	1 to 10	1 to 10	0.1 to 1	1 to 10	1 to 10	1 to 10	1 to 10	1 to 10
Cn1cc2nc(-c3ccc4nc(N5CCC(NC(C)(C)C)C5)ccc4n3)c(O)cc2n1 (stereo not drawn) [Compound 298, 5-{6-[3-(tert-butylamino)pyrrolidin-1-yl]-1,5-naphthyridin-2-yl}-2-methylpyrazolo[4,3-b]pyridin-6-ol]	< 0.1	< 0.1	< 0.1	< 0.1	< 0.1	< 0.1	< 0.1	< 0.1	< 0.1
Cn1cc2cc(-c3ccc4nc(N5CC[C@H](N[C@H]6C[C@@H](F)C6)C5)ccc4n3)c(O)cc2n1 [Compound 299, 2-methyl-5-{6-[(3S)-3-{[(1s,3s)-3-fluorocyclobutyl]amino}pyrrolidin-1-yl]-1,5-naphthyridin-2-yl}indazol-6-ol]	0.1 to 1	< 0.1	< 0.1	< 0.1	< 0.1	< 0.1	< 0.1	< 0.1	0.1 to 1
Cc1c(O)c(-c2ccc3nc(N4CCC(NC5COC5)C4)ccc3n2)cc2cn(C)nc12 (stereo not drawn) [Compound 302, 2,7-dimethyl-5-{6-[3-(oxetan-3-ylamino)pyrrolidin-1-yl]-1,5-naphthyridin-2-yl}Indazol-6-ol]	0.1 to 1	0.1 to 1	0.1 to 1	0.1 to 1	0.1 to 1	0.1 to 1	0.1 to 1	0.1 to 1	0.1 to 1
Cc1nc2c(C)c(O)c(-c3ccc4nc(N5CCC(NC6(C)CC6)C5)ccc4n3)cc2o1 (stereo not drawn) [Compound 309, 2,4-dimethyl-6-(6-{3-[(1-methylcyclopropyl)amino]pyrrolidin-1-yl}-1,5-naphthyridin-2-yl)-1,3-benzoxazol-5-ol]	< 0.1	< 0.1	< 0.1	< 0.1	< 0.1	< 0.1	< 0.1	< 0.1	< 0.1
Cc1nc2c(C)c(O)c(-c3ccc4nc(N5CCC(NC(C)C)C5)ccc4n3)cc2o1 (stereo not drawn) [Compound 312, 6-{6-[3-(isopropylamino)pyrrolidin-1-yl]-1,5-naphthyridin-2-yl}-2,4-dimethyl-1,3-benzoxazol-5-ol]	< 0.1	< 0.1	< 0.1	< 0.1	< 0.1	< 0.1	< 0.1	< 0.1	< 0.1
Cn1cc2cc(-c3ccc4nc(N5CCC(NC6CCC6)C5)ccc4n3)c(O)c(F)c2n1 (stereo not drawn) [Compound 315, 5-{6-[3-(cyclobutylamino)pyrrolidin-1-yl]-1,5-naphthyridin-2-yl}-7-fluoro-2-methylindazol-6-ol]	< 0.1	< 0.1	< 0.1	< 0.1	< 0.1	< 0.1	< 0.1	< 0.1	< 0.1
Cc1c(O)c(-c2ccc3nc(N4CCC(NC(C)C)C4)ccc3n2)cc2cn(C)nc12 (stereo not drawn) [Compound 318, 5-{6-[3-(isopropylamino)pyrrolidin-1-yl]-1,5-naphthyridin-2-yl}-2,7-dimethylindazol-6-ol]	< 0.1	< 0.1	< 0.1	< 0.1	< 0.1	< 0.1	< 0.1	< 0.1	< 0.1
Cc1c(O)c(-c2ccc3nc(N4CC[C@H](NC(C)C)C4)ccc3n2)cc2cn(C)nc12 [Compound 320]	< 0.1	< 0.1	< 0.1	< 0.1	< 0.1	< 0.1	< 0.1	< 0.1	< 0.1
